# Like-named read-outs stand apart in the source and are kept apart here.
# How the values were obtained:
# Phytophthora infestans = format: in vivo, Phytophthora infestans on tomato; conditions: applied 24 h before inoculation, assessed 7 days after inoculation
# [1] = system: Leptosphaeria nodorum (LEPTNO); assay: In vitro fungitoxicity of hydrazones with and without copper towards Leptosphaeria nodorum (Example 26); format: cell-based; conditions: 72 h at 25° C.; for inhibition of growth at 0.05 µg/mL: Parastagonospora nodorum, 72 h, read-out: LEPTNO % Inhn. Minus Copper Observed; for inhibition of growth at 0.05 µg/mL / LEPTNO % Inhn. Minus Copper Observed: copper-minus medium
# [2] = hydrazone 50 ppm + 50 μM CuCl2.2H2O, tomato
# [3] = compound 0.05 μg/mL, copper-plus medium (CuCl2.2H2O)
# [4] = hydrazone 50 ppm with 50 μM CuCl2.2H2O, tomato late blight
# [5] = test compound Concn. 0.05 μg/mL
# [6] = copper-plus medium (CuCl2 10 μM), test compound Concn. 0.05 μg/mL
Structure (SMILES),TLB % Control (Phytophthora infestans; [2]),melting point,inhibition of growth at 0.05 µg/mL ([1]; compound 0.05 μg/mL),"LEPTNO % Inhn. Plus Copper Observed [1, 3]",TLB % Control (Phytophthora infestans; [4]),"inhibition of growth at 0.05 µg/mL [1, 5]","LEPTNO % Inhn. Plus Copper Observed [1, 6]",LEPTNO % Inhn. Minus Copper Observed ([1]; compound 0.05 μg/mL)
COc1ccc(/C(C)=N/NC(=O)c2ccc(Cl)cc2)c(O)c1 [Example 286],75.0%,227 to 229 °C,2.3%,98.4%,–,–,–,–
COc1ccc(/C(C)=N/NC(=O)c2ccccc2Cl)c(O)c1 [Example 284],74.0%,174 to 175 °C,0%,97.1%,–,–,–,–
O=C(N/N=C/c1cc(Cl)ccc1O)c1ccc(F)cc1 [Example 421],–,234 to 243 °C,–,–,94.0%,8.2%,96.6%,–
COc1ccc(C(=O)N/N=C(\C)c2cc(Cl)cc(Cl)c2O)c(O)c1 [Example 477],–,310 to 312 °C,–,–,93.0%,6.2%,83.4%,–
C/C(=N\NC(=O)c1ccccc1C)c1cc(Br)cc(Br)c1O [Example 540],–,221 to 222 °C,–,–,95.0%,0%,97.5%,–
CC/C(=N\NC(=O)c1ccccc1)c1cc(Cl)cc(Cl)c1O [Example 590],–,214 to 215 °C,–,–,88.0%,10%,98.6%,–
Cc1ccc(C(=O)N/N=C/c2cccc(Cl)c2O)cc1 [Example 424],–,230 to 232 °C,–,–,100.0%,22.3%,97.0%,–
C/C(=N\NC(=O)c1ccccc1C)c1cccc(Cl)c1O [Example 493],–,193 to 198 °C,–,–,95.0%,0%,97.8%,–
C/C(=N\NC(=O)c1ccccc1C(F)(F)F)c1ccccc1O [Example 58],49.0%,208 to 210 °C,0%,95.0%,–,–,–,–
C/C(=N\NC(=O)c1ccccc1Cl)c1cccc(Cl)c1O [Example 496],–,189 to 193 °C,–,–,94.0%,0.7%,97.8%,–
C/C(=N\NC(=O)c1ccc(Cl)cc1)c1ccc(Cl)cc1O [Example 257],21.0%,246 to 247 °C,6%,94.4%,–,–,–,–
COc1ccc(/C(C)=N/NC(=O)c2ccccc2C)c(O)c1OC [Example 552],–,150 to 152 °C,–,–,71.0%,0%,94.2%,–
C/C(=N\NC(=O)c1ccccc1)c1cccc([N+](=O)[O-])c1O [Example 268],31.0%,215 to 224 °C,1.2%,98.7%,–,–,–,–
C/C(=N\NC(=O)c1ccccc1C)c1cc(Cl)ccc1O [Example 505],–,192 to 193 °C,–,–,46.0%,7.1%,97.3%,–
C/C(=N\NC(=O)c1ccc(C)cc1)c1cc(Cl)ccc1O [Example 507],–,221 to 228 °C,–,–,66.0%,7.6%,97.0%,–
C/C(=N\NC(=O)c1c(C)cccc1O)c1cc(Cl)cc(Cl)c1O [Example 479],–,245 °C,–,–,97.0%,0%,97.5%,–
CC(C)c1ccc(C(=O)N/N=C/c2cc(Cl)cc(Cl)c2O)cc1 [Example 42],60.0%,270 to 272 °C,–,93.2%,–,–,–,9.2%
COc1ccc(O)c(/C(C)=N/NC(=O)c2cccc(Cl)c2)c1 [Example 266],28.0%,190 to 201 °C,4.5%,95.4%,–,–,–,–
O=C(N/N=C/c1cc(Cl)cc(C(F)(F)F)c1O)c1cccc(F)c1 [Example 378],–,219 to 221 °C,–,–,97.0%,26.3%,98.4%,–
O=C(N/N=C/c1cc(C(F)(F)F)ccc1O)c1ccccc1C(F)(F)F [Example 444],–,174 to 176 °C,–,–,91.0%,0%,100.0%,–
C/C(=N\NC(=O)c1cccc(Cl)c1O)c1cc(Cl)cc(Cl)c1O [Example 481],–,260 to 262 °C,–,–,76.0%,10.3%,97.8%,–

Structure (SMILES),TLB % Control (Phytophthora infestans; [2]),melting point,inhibition of growth at 0.05 µg/mL ([1]; compound 0.05 μg/mL),"LEPTNO % Inhn. Plus Copper Observed [1, 3]",TLB % Control (Phytophthora infestans; [4]),"inhibition of growth at 0.05 µg/mL [1, 5]","LEPTNO % Inhn. Plus Copper Observed [1, 6]",LEPTNO % Inhn. Minus Copper Observed ([1]; compound 0.05 μg/mL)
O=C(N/N=C/c1c(Cl)ccc(Cl)c1O)c1ccc(F)cc1 [Example 368],–,264 to 267 °C,–,–,98.0%,0%,96.9%,–
COc1ccc(C(=O)N/N=C(\C)c2cc(Cl)ccc2O)cc1 [Example 511],–,203 to 228 °C,–,–,73.0%,0%,97.8%,–
O=C(N/N=C/c1cc(Br)cc(F)c1O)c1ccccc1 [Example 410],–,211 to 212 °C,–,–,95.0%,1.9%,97.6%,–
O=C(N/N=C/c1cc(C(F)(F)F)cc(C(F)(F)F)c1O)c1ccc([N+](=O)[O-])cc1 [Example 339],–,244 to 247 °C,–,–,100.0%,1.5%,95.4%,–
O=C(N/N=C/c1cc(Cl)c(Cl)cc1O)c1ccccc1 [Example 240],74.6%,238 to 241 °C,0%,98.1%,–,–,–,–
Cc1cccc(O)c1C(=O)N/N=C/c1cc(Cl)cc(Cl)c1O [Example 485],–,217 to 219 °C,–,–,95.0%,8%,96.7%,–
O=C(N/N=C/c1cccc(C(F)(F)F)c1O)c1ccc([N+](=O)[O-])cc1 [Example 350],–,253 to 255 °C,–,–,97.0%,11.3%,94.9%,–
COc1ccc(/C(C)=N/NC(=O)c2ccccc2O)c(O)c1 [Example 473],–,276 to 278 °C,–,–,78.0%,0%,97.5%,–
COc1ccc(/C(C)=N/NC(=O)c2ccc(Br)cc2)c(O)c1 [Example 483],–,239 to 241 °C,–,–,63.0%,0%,97.9%,–
Cc1ccc(O)c(/C=N/NC(=O)c2ccccc2)c1 [Example 235],80.0%,192 to 193 °C,0%,96.3%,–,–,–,–
C/C(=N\NC(=O)c1cccc(Cl)c1)c1cc(C)ccc1O [Example 316],–,231 to 241 °C,–,–,14.0%,4.5%,97.1%,–
O=C(N/N=C(/c1ccccc1O)C(F)(F)F)c1ccccc1 [Example 591],–,208 to 210 °C,–,–,11.0%,0%,9.9%,–
O=C(N/N=C/c1ccc(Cl)cc1O)c1ccccc1C(F)(F)F [Example 396],–,197 to 200 °C,–,–,49.0%,0%,95.5%,–
O=C(N/N=C/c1ccc(Cl)c(Cl)c1O)c1ccc([N+](=O)[O-])cc1 [Example 361],–,237 to 243 °C,–,–,97.0%,3.3%,96.4%,–
Cc1cccc(O)c1/C=N/NC(=O)c1ccccc1 [Example 246],50.9%,212 to 213 °C,0%,95.3%,–,–,–,–
Cc1ccc(C(=O)N/N=C/c2cc(Br)cc(Br)c2O)c(C)c1 [Example 32],74.6%,192 to 194 °C,–,94.4%,–,–,–,0.0%
O=C(N/N=C/c1c(C(F)(F)F)ccc(Cl)c1O)c1cccc(Cl)c1 [Example 451],–,242 to 245 °C,–,–,100.0%,4.6%,100.0%,–
Cc1ccc(C(=O)N/N=C/c2cc(C(F)(F)F)cc(C(F)(F)F)c2O)c(O)c1 [Example 342],–,251 to 254 °C,–,–,86.0%,9.1%,98.3%,–
O=C(N/N=C/c1cc(Cl)c(C(F)(F)F)cc1O)c1ccccc1 [Example 318],–,242 to 243 °C,–,–,71.2%,3.1%,97.3%,–
C/C(=N\NC(=O)c1ccccc1O)c1cccc([N+](=O)[O-])c1O [Example 525],–,274 to 283 °C,–,–,78.0%,5.4%,97.4%,–

# — patent publication US20120010075A1 (priority 2009, published 2012)
